Reference: US20050009730A1, “Treatment of cns disorders using cns target modulators” (priority 2001, published 2005)
Like-named read-outs stand apart in the source and are kept apart here. Marks after values point to notes of the source that are not given here.

How the values were obtained:
Histamine, H1 = Histamine, H1 (Homo sapiens, UniProt P35367); experiment: H1 binding assay by displacement of known standards
Experimental: (§1) The following binding assays were performed on the Series 11 compounds described above by displacement of known standards from the H1, M1, M2, and M3 receptors, wherein H1 is a histamine receptor, and M1, M2, and M3 are muscarinic receptors.
The binding studies against the histamine receptor, H1, indicate binding affinity, and therefore the results of the binding assays are an indication of the activity of the compound. […]
The following binding assays were performed on additional compounds described above by displacement of known standards from the H1, M1, M2, and M3 receptors, wherein H1 is a histamine receptor, and M1, M2, and M3 are muscarinic receptors.
The binding assays for H1 was the same as described in Example 10 and the M1, M2, and M3 binding assays are the same as those described in Example 10 for human recombinant expressed cells.

Male Wistar rats = experiment: Sleep-wakefulness, locomotor activity and body temperature monitoring (SCORE-2000), treatment at CT-18
muscarinic receptors = experiment: Muscarinic receptor binding, M1, M2 and M3 taken together in the conclusions
Experimental: as §1
(§2) In addition, the binding studies against the muscarinic receptors indicate the extent to which the compounds bind the muscarinic receptors, responsible for anti-cholinergic activity of the compound. Binding to muscarinic receptors results in several undesired side effects of many known antihistamines, e.g., dry-mouth. A decrease in the binding of the compounds to the M1-M3 receptors, relative the binding of the compound to the H1 receptor, is an indication of the greater specificity of the compound for the histamine receptor over the muscarinic receptor.

M3 muscarinic receptor = M3 muscarinic receptor (Homo sapiens, UniProt P20309); experiment: M3 binding assay by displacement of known standards (Example 11)
Sequence of M3 muscarinic receptor (P20309 whole entry): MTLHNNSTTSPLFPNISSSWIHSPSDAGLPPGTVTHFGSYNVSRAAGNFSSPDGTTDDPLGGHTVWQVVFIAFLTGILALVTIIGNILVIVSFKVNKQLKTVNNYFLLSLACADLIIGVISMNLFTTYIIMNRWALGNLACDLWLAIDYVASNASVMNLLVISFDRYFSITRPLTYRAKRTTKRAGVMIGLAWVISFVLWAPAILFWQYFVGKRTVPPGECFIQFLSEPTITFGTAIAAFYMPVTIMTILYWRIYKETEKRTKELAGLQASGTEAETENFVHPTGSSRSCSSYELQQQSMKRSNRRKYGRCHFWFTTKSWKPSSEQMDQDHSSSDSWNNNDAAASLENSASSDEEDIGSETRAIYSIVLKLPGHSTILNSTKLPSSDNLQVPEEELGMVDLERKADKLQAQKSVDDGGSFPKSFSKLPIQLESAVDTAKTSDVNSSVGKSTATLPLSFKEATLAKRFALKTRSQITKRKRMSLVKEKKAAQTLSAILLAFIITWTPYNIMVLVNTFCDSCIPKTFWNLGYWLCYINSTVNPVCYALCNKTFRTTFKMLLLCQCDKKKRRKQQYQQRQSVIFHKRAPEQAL
Experimental: as §1, §2

M1 muscarinic receptor = molecular target: T1, M1 muscarinic receptor (Homo sapiens, UniProt P11229); experiment: M1 binding assay by displacement of known standards (Example 11)
T1 sequence (P11229 1-460): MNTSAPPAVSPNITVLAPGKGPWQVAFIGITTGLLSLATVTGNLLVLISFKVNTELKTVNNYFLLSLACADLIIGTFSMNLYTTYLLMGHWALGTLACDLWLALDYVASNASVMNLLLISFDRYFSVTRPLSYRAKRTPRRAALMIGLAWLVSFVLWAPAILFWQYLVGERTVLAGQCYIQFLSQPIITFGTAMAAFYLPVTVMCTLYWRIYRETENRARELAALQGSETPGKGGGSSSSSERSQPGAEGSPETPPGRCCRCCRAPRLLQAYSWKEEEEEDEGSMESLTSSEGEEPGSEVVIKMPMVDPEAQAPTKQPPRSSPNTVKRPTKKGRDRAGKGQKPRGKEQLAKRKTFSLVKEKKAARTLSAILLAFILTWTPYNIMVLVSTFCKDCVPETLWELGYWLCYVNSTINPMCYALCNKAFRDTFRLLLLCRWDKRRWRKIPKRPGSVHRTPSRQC
Experimental: as §1, §2

M2 muscarinic receptor = molecular target: T2, M2 muscarinic receptor (Homo sapiens, UniProt P08172); experiment: M2 binding assay by displacement of known standards (Example 11)
T2 sequence (P08172 1-466): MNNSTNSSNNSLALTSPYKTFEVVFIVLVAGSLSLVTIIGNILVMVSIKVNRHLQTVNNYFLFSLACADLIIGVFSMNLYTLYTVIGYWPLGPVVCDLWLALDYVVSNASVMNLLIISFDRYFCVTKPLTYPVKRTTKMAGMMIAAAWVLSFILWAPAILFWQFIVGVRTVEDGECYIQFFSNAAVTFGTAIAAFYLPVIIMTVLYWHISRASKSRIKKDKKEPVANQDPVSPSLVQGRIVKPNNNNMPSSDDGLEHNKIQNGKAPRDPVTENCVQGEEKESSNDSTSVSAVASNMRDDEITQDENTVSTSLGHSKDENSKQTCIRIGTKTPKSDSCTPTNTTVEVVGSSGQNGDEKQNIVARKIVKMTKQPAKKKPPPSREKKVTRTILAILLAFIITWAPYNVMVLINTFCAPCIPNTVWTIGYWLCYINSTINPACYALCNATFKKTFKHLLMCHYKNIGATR
Experimental: as §1, §2

[1] = in human blood; cited from earlier work
[2] = molecular target: T3, Muscarinic, M2 (Human Recombinant) (Homo sapiens, UniProt P08172); experiment: Receptor selectivity binding assay comparison; settings: 1.0E−6
T3 sequence (P08172 1-466): T2 sequence (P08172 1-466)

Histamine, H2 = Histamine, H2 (Homo sapiens, UniProt P25021); experiment: Receptor selectivity binding assay comparison; settings: 1.0E−6
Sequence of Histamine, H2 (P25021 whole entry): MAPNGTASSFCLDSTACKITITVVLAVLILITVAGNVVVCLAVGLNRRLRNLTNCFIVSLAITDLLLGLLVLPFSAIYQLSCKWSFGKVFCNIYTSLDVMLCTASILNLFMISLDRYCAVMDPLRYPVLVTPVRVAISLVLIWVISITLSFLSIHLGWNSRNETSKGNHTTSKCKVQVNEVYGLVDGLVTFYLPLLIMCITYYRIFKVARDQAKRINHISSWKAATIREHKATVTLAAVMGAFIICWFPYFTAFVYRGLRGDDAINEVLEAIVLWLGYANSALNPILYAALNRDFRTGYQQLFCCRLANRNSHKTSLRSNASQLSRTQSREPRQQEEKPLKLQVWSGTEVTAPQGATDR

HERG = HERG (Homo sapiens, UniProt Q12809)
Sequence of HERG (Q12809 whole entry): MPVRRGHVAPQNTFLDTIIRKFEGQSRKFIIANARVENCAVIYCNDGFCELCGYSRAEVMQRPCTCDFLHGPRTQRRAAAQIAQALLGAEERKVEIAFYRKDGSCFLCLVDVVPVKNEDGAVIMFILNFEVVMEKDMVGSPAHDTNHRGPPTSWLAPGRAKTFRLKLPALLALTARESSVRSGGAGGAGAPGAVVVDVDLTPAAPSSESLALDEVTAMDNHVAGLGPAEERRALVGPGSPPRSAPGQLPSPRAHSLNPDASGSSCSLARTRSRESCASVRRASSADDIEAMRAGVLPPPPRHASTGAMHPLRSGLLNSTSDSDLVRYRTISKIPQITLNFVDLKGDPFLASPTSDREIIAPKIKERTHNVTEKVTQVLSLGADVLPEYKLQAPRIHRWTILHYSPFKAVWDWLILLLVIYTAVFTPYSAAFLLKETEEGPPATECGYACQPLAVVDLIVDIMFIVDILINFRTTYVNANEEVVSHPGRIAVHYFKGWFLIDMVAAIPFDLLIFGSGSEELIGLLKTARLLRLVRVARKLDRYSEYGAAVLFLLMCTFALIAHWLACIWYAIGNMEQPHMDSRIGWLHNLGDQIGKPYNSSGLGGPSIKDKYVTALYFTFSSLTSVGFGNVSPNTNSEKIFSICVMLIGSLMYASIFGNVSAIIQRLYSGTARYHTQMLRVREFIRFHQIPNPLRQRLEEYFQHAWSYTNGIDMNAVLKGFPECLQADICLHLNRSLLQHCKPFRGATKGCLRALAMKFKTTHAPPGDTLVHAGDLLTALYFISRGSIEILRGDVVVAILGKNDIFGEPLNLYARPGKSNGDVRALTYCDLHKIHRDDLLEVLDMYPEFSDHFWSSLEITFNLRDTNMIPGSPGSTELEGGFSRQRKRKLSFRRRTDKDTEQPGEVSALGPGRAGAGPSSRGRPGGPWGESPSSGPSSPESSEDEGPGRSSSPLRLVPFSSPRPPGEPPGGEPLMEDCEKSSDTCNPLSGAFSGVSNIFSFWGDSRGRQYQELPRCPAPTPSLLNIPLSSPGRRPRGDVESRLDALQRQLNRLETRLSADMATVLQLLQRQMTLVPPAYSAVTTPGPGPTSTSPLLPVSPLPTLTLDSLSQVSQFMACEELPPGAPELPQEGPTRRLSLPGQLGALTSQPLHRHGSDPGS

[3] = read-out: Receptor Binding Data (Ki nM) H1
[4] = 10 mg/kg or 30 mg/kg, intraperitoneal
[5] = 30 mg/kg and 10 mg/kg, intraperitoneal, CT-18

Sequence of Histamine, H1 (P35367 whole entry): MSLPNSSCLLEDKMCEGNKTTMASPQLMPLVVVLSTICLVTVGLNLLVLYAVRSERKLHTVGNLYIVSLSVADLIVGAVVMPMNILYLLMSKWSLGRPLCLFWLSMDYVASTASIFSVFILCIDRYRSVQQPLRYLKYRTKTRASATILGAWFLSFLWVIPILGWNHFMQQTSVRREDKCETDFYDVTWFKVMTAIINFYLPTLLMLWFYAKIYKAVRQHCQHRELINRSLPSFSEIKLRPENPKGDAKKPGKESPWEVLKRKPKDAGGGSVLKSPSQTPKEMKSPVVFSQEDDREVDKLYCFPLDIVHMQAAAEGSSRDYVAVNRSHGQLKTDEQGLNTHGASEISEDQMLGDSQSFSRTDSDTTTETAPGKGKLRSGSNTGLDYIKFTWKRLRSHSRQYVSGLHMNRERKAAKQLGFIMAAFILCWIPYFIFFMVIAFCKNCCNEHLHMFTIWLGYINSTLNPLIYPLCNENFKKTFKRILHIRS

SMILES	IC50 (Histamine, H1) [nM]	Ki (Histamine, H1; read-out: H1 Ki) [nM]	Average Bout-Length (Male Wistar rats; 30 mg/kg PO, at CT-18) [min]	Duration (Male Wistar rats; 30 mg/kg PO, at CT-18) [h]	Maximum Bout Length (Male Wistar rats; 30 mg/kg PO, at CT-18) [min]	NREM Accum. (Male Wistar rats; 30 mg/kg PO, at CT-18) [min]	NREM Peak (Male Wistar rats; 30 mg/kg PO, at CT-18) [%/hr]	Onset (Male Wistar rats; 30 mg/kg PO, at CT-18) [min]	Ki (Histamine, H1; [3]) [nM]	further results
CC(C)OC(=O)CCN1CCC(=C(c2ccccc2)c2ccccc2)CC1 [Series 11d, Isopropyl 3-[4-(diphenylmethylidene)piperidin-1-yl]propanoate]	378	147	11.0	6	20.1	55.5	58.5	135	–	–
O=C(CCN1CCC(=C(c2ccccc2)c2ccccc2)CC1)OC1CCOC1 (stereo not shown) [Series 11h]	201	88.3	–	–	–	–	–	–	–	difference in binding affinity towards the muscarinic receptors between the enantiomeric compounds (muscarinic receptors): do show a substantial difference; difference in binding affinity towards the H1 receptor between the enantiomeric compounds (Histamine, H1): do not result in a substantial difference
CC(C)(CCN1CCC(=C2c3ccccc3COc3ccccc32)CC1)C(=O)O [Series 75a]	–	–	6.8	4	13.6	33.9	58.8	70 to 85	47.9	Average Bout-Length (Male Wistar rats; 45 mg/kg PO, at CT-18): 10.8 min; Duration (Male Wistar rats; 45 mg/kg PO, at CT-18): 5 h; Maximum Bout Length (Male Wistar rats; 45 mg/kg PO, at CT-18): 19.4 min; NREM Accum. (Male Wistar rats; 45 mg/kg PO, at CT-18): 33.9 min; NREM Peak (Male Wistar rats; 45 mg/kg PO, at CT-18): 58.2 %/hr; Onset (Male Wistar rats; 45 mg/kg PO, at CT-18): 70 to 85 min
O=C(CCN1CCC(=C(c2ccccc2)c2ccccc2)CC1)O[C@H]1CCOC1 [Series 11g]	196	86.1	–	–	–	–	–	–	–	IC50 (M3 muscarinic receptor): 5710 nM; Ki (M3 muscarinic receptor): 1560 nM; IC50 (M1 muscarinic receptor): 4680 nM; Ki (M1 muscarinic receptor): 360 nM; IC50 (M2 muscarinic receptor): 5700 nM; Ki (M2 muscarinic receptor): 2080 nM; difference in binding affinity towards the muscarinic receptors between the enantiomeric compounds (muscarinic receptors): do show a substantial difference; difference in binding affinity towards the H1 receptor between the enantiomeric compounds (Histamine, H1): do not result in a substantial difference
CC(C)COC(=O)CCN1CCC(=C(c2ccccc2)c2ccccc2)CC1 [Series 11e, Isobutyl 3-[4-(diphenylmethylidene)piperidin-1-yl]propanoate]	718	279	8.3	6	19.1	49.6	59.6	80	–	–
Cl.O=C(O)CCN1CCC(=C(c2ccccc2)c2ccccc2)CC1 [Series 11a]	308	119	11.2	6	18.7	41.2	67.3	85	–	Rebound Insomnia (Male Wistar rats; 30 mg/kg PO, at CT-18): Minor
CC(C)OC(=O)CN1CCC(=C2c3ccccc3COc3ccccc32)CC1 [dox7d-oxalate]	–	–	12.9	5	25.0	54.1	76.9	85	198	–
Cl.O=C(O)CCN1CCC(OC(c2ccccc2)c2ccccc2)CC1 [Series 6a, 3-[4-(diphenylmethoxy)piperidin-1-yl]propanoic acid hydrochloride]	–	–	7.0	5	12.8	26.5	56.4	65	56.1	–
O=C(CCN1CCC(=C(c2ccccc2)c2ccccc2)CC1)OC1CCOCC1 [Series 11i]	200	87.8	–	–	–	–	–	–	–	–
Cl.O=C(O)CCCN1CCC(OC(c2ccccc2)c2ccccc2)CC1 [Series 53a]	–	–	4.3	4	9.1	17.4	49.2	30	16.1	–
Cc1ccc(-c2nc3ccc(C)cn3c2CC(=O)N(C)C)cc1 [Ambien, Zolpidem, reference compound]	–	–	–	–	–	–	–	–	–	Average Bout-Length (Male Wistar rats; 30 mg/kg IP, at CT-18): 5.8 min; Duration (Male Wistar rats; 30 mg/kg IP, at CT-18): 3 to 4 h; Maximum Bout Length (Male Wistar rats; 30 mg/kg IP, at CT-18): 13.1 min; Motor Inhibition (Male Wistar rats; 30 mg/kg IP, at CT-18): YES; NREM Accum. (Male Wistar rats; 30 mg/kg IP, at CT-18): 58.7 min; NREM Peak (Male Wistar rats; 30 mg/kg IP, at CT-18): 58.2 %/hr; Onset (Male Wistar rats; 30 mg/kg IP, at CT-18): 5 min; REM Inhibition (Male Wistar rats; 30 mg/kg IP, at CT-18): YES; Rebound Insomnia (Male Wistar rats; 30 mg/kg IP, at CT-18): YES
O=C(O)CN1CCC(=C2c3ccccc3COc3ccccc32)CC1 [Series 7a]	–	–	7.3	5 to 6	16.9	29.5	56.9	130	55.1	–
Cc1ccc(/C(=C\CN2CCCC2)c2cccc(C(=O)O)n2)cc1 [Series 16a]	–	–	5.4	5	11.8	20.7	57.9	180	43.9	–
O=C(O)CCCN1CCC(=C2c3ccccc3COc3ccccc32)CC1 [Series 73a]	–	–	14.5	–	27.6	47.3	62.2	45	42.8	–
CC(C)(CN1CCC(=C2c3ccccc3COc3ccccc32)CC1)C(=O)O [Series 74a]	–	–	9.9	5 to 6	22.3	43.4	64.4	70 to 80	109	–
Nc1ncnc2c1ncn2[C@@H]1O[C@H](CO)[C@@H](O)[C@H]1O [adenosine]	–	–	–	–	–	–	–	–	–	half-life [1]: < 1 s
CN(C)CCC=C1c2ccccc2COc2ccccc21 [Doxepin, reference compound]	–	–	–	–	–	–	–	–	–	Percent Inhibition, Muscarinic, M2 (Human Recombinant) [2]: […]; Percent Inhibition, Histamine, H2 (Histamine, H2): 74.7%; Percent Inhibition, HERG (HERG): 23%**
O=C(CCN1CCC(=C(c2ccccc2)c2ccccc2)CC1)OC1CCCC1.O=C(O)C(=O)O [Series 11f, Cyclopentyl 3-[4-(diphenylmethylidene)piperidin-1-yl]propanoate, oxalic acid salt]	1070	416	–	–	–	–	–	–	–	REM sleep inhibition (Male Wistar rats; [4]): did not, however, produce; Rebound Insomnia (Male Wistar rats; [4]): did not, however, produce; time post-treatment for which total sleep time was increased (Male Wistar rats; [5]): 3 h; total sleep time (Male Wistar rats; [5]): significantly increased; cumulative effect on total sleep time (TST) during the initial 5 hours post-treatment, relative to baseline (Male Wistar rats; 30 mg/kg versus Zolpidem 10 mg/kg): induced more TST than Zolpidem; sleep continuity, as assessed by sleep bout length (Male Wistar rats; 10 and 30 mg/kg, intraperitoneal, relative to vehicle control): increased sleep continuity; soporific effects (Male Wistar rats; administered at CT-18, intraperitoneal bolus): robust soporific effects; locomotor activity (Male Wistar rats; intraperitoneal, CT-18): reduction; sleep inducing effects compared to therapeutic doses of Ambien (Zolpidem) (Male Wistar rats; intraperitoneal, CT-18): equal or better; increase of sleep time and sleep continuity (sleep bout lengths): dependence on dose (Male Wistar rats; laboratory rats, 10 and 30 mg/kg): dose-dependent
